From US11542255B2, “Sulfonylureas and sulfonylthioureas as NLRP3 inhibitors” (Inflazome Limited, priority 2017, dated 2023)
Counter-ions that a name gives are not always drawn.

Tests used:
NLRP3 [1] = molecular target: T1, NLRP3 (Homo sapiens, UniProt Q96P20); assay: THP-1 cells pyroptosis assay (LPS + nigericin, resazurin readout); format: cell-based; set-up: Seed THP-1 cells (25,000 cells/well) containing 1.0 μg/ml LPS in 40 μl of RPMI medium; host or cells: THP-1 cells; details: NLRP3 inhibitory activity, 1.0 μg/ml LPS, 5 μM nigericin
T1 sequence (Q96P20 whole entry): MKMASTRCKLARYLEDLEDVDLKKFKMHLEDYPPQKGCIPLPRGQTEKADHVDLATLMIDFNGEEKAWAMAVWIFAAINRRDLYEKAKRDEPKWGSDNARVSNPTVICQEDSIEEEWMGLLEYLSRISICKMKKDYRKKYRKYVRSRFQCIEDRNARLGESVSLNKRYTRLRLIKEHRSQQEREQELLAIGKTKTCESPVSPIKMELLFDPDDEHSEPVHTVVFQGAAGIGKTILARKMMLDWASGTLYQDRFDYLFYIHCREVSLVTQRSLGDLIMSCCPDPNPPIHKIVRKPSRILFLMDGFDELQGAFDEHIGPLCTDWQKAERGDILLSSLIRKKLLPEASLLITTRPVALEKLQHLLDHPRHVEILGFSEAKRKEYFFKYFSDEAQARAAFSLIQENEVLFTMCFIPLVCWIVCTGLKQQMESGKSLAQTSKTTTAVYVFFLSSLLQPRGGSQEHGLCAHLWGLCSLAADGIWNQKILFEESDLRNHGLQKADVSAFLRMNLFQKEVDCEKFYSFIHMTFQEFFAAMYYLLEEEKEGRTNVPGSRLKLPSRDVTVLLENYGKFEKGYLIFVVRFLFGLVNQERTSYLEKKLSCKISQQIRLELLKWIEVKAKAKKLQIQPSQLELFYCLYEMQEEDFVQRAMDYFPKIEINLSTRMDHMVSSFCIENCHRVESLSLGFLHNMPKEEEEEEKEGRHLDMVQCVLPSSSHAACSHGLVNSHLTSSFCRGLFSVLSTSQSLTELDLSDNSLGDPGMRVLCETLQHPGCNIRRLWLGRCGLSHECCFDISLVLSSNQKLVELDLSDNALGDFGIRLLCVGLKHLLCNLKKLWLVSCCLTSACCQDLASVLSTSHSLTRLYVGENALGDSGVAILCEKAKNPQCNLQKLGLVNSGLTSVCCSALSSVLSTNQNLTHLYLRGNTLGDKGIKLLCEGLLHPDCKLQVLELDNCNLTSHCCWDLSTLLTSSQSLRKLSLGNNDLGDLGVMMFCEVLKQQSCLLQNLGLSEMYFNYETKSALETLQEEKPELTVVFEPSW
Method: THP-1 cells (ATCC #TIB-202) were grown in RPMI containing L-glutamine (Gibco #11835) supplemented with 1 mM sodium pyruvate (Sigma #S8636) and penicillin (100 units/ml)/streptomycin (0.1 mg/ml) (Sigma #P4333) in 10% Fetal Bovine Serum (FBS) (Sigma #F0804). The cells were routinely passaged and grown to confluency (˜10^6 cells/ml). On the day of the experiment, THP-1 cells were harvested and resuspended into RPMI medium (without FBS). The cells were then counted and viability (>90%) checked by Trypan blue (Sigma #T8154). Appropriate dilutions were made to give a concentration of 625,000 cells/ml. To this diluted cell solution was added LPS (Sigma #L4524) to give a […] Final Assay Concentration (FAC). 40 μl of the final preparation was aliquoted into each well of a 96-well plate. The plate thus prepared was used for compound screening.
The following method step-by-step assay was followed for compound screening. • 1. Seed THP-1 cells (25,000 cells/well) containing 1.0 μg/ml LPS in 40 μl of RPMI medium (without FBS) in 96-well, black walled, clear bottom cell culture plates coated with poly-D-lysine (VWR #734-0317) • 2. Add 5 μl compound (8 points half-log dilution, with 10 μM top dose) or vehicle (DMSO 0.1% FAC) to the appropriate wells • 3. Incubate for 3 hrs at 37° C. in 5% CO2 • 4. Add 5 μl nigericin (Sigma #N7143) (FAC 5 μM) to all wells • 5. Incubate for 1 hr at 37° C. and 5% CO2 • 6. At the end of the incubation period, spin plates at 300×g for 3 mins and remove supernatant • 7. Then add 50 μl of resazurin (Sigma #R7017) (FAC 100 μM resazurin in RPMI medium without FBS) and incubate plates for a further 1-2 hrs at 37° C. and 5% CO2 • 8. Plates were read in an Envision reader at Ex 560 nm and Em 590 nm • 9. IC50 data is fitted to a non-linear regression equation (log inhibitor vs response-variable slope 4-parameters)

NLRP3 [2] = molecular target: T1, NLRP3; assay: Human whole blood IL1β release assay (LPS + nigericin, AlphaLisa IL-1β); format: cell-based; set-up: Human whole blood in Li-heparin tubes was obtained from healthy donors from a volunteer donor panel; from tissue; host or cells: human whole blood from healthy donors; details: NLRP3 inhibitory activity, 1 μg/ml LPS, 10 μM nigericin, IL-1β release, read-out: HWB IC50
Method: For systemic delivery, the ability to inhibit NLRP3 when the compounds are present within the bloodstream is of great importance. For this reason, the NLRP3 inhibitory activity of a number of compounds in human whole blood was investigated in accordance with the following protocol.
Human whole blood in Li-heparin tubes was obtained from healthy donors from a volunteer donor panel. • 1. Plate out 80 μl of whole blood containing 1 μg/ml of LPS in 96-well, clear bottom cell culture plate (Corning #3585) • 2. Add 10 μl compound (8 points half-log dilution with 10 μM top dose) or vehicle (DMSO 0.1% FAC) to the appropriate wells • 3. Incubate for 3 hrs at 37° C., 5% CO2 • 4. Add 10 μl Nigericin (Sigma #N7143) (10 μM FAC) to all wells • 5. Incubate for 1 hr at 37° C., 5% CO2 • 6. At the end of the incubation period, spin plates at 300×g for 5 mins to pellet cells and remove 20 μl of supernatant and add to 96-well v-bottom plates for IL-1β analysis (note: these plates containing the supernatants can be stored at −80° C. to be analysed at a later date) • 7. IL-1β was measured according to the manufacturer protocol (Perkin Elmer-AlphaLisa IL-1β Kit AL220F-5000) • 8. IC50 data is fitted to a non-linear regression equation (log inhibitor vs response-variable slope 4-parameters)

SMILES | IC50 (NLRP3 [1]) [nM] | IC50 (NLRP3 [2]) [nM]
CN(C)C1CCCn2nc(S(=O)(=O)NC(=O)Nc3c4c(cc5c3CCC5)CCC4)cc21 (stereo not shown) [Example 60, 4-(Dimethylamino)-N-((1,2,3,5,6,7-hexahydro-s-indacen-4-yl)carbamoyl)-4,5,6,7-tetrahydropyrazolo[1,5-a]pyridine-2-sulfonamide] | < 40 | 400 to 800
CN(CCO)Cc1cc(S(=O)(=O)NC(=O)Nc2c3c(cc4c2CCC4)CCC3)nn1C [Example 117, N-((1,2,3,5,6,7-Hexahydro-s-indacen-4-yl)carbamoyl)-5-(((2-hydroxyethyl)(methyl)amino)methyl)-1-methyl-1H-pyrazole-3-sulfonamide] | 40 to 160 | < 400
CC(C)c1cc(F)cc(C(C)C)c1NC(=O)NS(=O)(=O)c1cc(CN2CCCC2)n(C)n1 [Example 81, N-((4-Fluoro-2,6-diisopropylphenyl)carbamoyl)-1-methyl-5-(pyrrolidin-1-ylmethyl)-1H-pyrazole-3-sulfonamide] | 160 to 640 | < 400
COCCN(C)Cc1cc(S(=O)(=O)NC(=O)Nc2c(C(C)C)cc(F)cc2C(C)C)nn1C [Example 118, N-((4-Fluoro-2,6-diisopropylphenyl)carbamoyl)-5-(((2-methoxyethyl)(methyl)amino)methyl)-1-methyl-1H-pyrazole-3-sulfonamide, Sodium Salt] | 640 to 2560 | –
CN1CC(N(C)Cc2cc(S(=O)(=O)NC(=O)Nc3c4c(cc5c3CCC5)CCC4)nn2C)C1 [Example 8, N-((1,2,3,5,6,7-Hexahydro-s-indacen-4-yl)carbamoyl)-1-methyl-5-((methyl(1-methylazetidin-3-yl)amino)methyl)-1H-pyrazole-3-sulfonamide, Sodium Salt] | 160 to 640 | –
CC(C)c1cc(Cl)cc(C(C)C)c1NC(=O)NS(=O)(=O)c1cc(CN2CCOCC2)n(C)n1 [Example 120, N-((4-Chloro-2,6-diisopropylphenyl)carbamoyl)-1-methyl-5-(morpholinomethyl)-1H-pyrazole-3-sulfonamide, Sodium Salt] | 640 to 2560 | –
CC(C)c1cc(F)cc(C(C)C)c1NC(=O)NS(=O)(=O)c1cc(CN(C)C2CC2)n(C)n1 [Example 87, 5-((Cyclopropyl(methyl)amino)methyl)-N-((4-fluoro-2,6-diisopropylphenyl)carbamoyl)-1-methyl-1H-pyrazole-3-sulfonamide, sodium Salt] | 640 to 2560 | –
CC(c1cc(S(=O)(=O)[N-]C(=O)Nc2c3c(cc4c2CCC4)CCC3)nn1C)[N+](C)(C)C (stereo not shown) [Example 19, ((1,2,3,5,6,7-Hexahydro-s-indacen-4-yl)carbamoyl)((1-methyl-5-(1-(trimethylammonio)ethyl)-1H-pyrazol-3-yl)sulfonyl)amide] | 640 to 2560 | –
Cn1nc(S(=O)(=O)NC(=O)Nc2c3c(cc4c2CCC4)CCC3)cc1CN1CCOCC1 [Example 121, N-((1,2,3,5,6,7-Hexahydro-s-indacen-4-yl)carbamoyl)-1-methyl-5-(morpholinomethyl)-1H-pyrazole-3-sulfonamide] | 640 to 2560 | –
CC(C)c1cc(F)cc(-c2cncnc2)c1NC(=O)NS(=O)(=O)c1cc(CN(C)C)n(C(C)C)n1 [Example 42, 5-((Dimethylamino)methyl)-N-((4-fluoro-2-isopropyl-6-(pyrimidin-5-yl)phenyl)carbamoyl)-1-isopropyl-1H-pyrazole-3-sulfonamide] | 640 to 2560 | –
CC(C)c1cc(F)cc(-c2ccnc(C(N)=O)c2)c1NC(=O)NS(=O)(=O)c1cc(CN(C)C)n(C)n1 [Example 28, 4-(2-(3-((5-((Dimethylamino)methyl)-1-methyl-1H-pyrazol-3-yl)sulfonyl)ureido)-5-fluoro-3-isopropylphenyl)picolinamide] | 640 to 2560 | –
CC(C)c1cc(F)cc(-c2cncnc2)c1NC(=O)NS(=O)(=O)c1cc(CN(C)C)n(C)n1 [Example 43, 5-((Dimethylamino)methyl)-N-((4-fluoro-2-isopropyl-6-(pyrimidin-5-yl)phenyl)carbamoyl)-1-methyl-1H-pyrazole-3-sulfonamide] | 640 to 2560 | –
CC(C)c1cc(F)cc(C(C)C)c1NC(=O)NS(=O)(=O)c1cc(CN(C)C2CN(C)C2)n(C)n1 [Example 9, N-((4-Fluoro-2,6-diisopropylphenyl)carbamoyl)-1-methyl-5-((methyl(1-methylazetidin-3-yl)amino)methyl)-1H-pyrazole-3-sulfonamide, Sodium Salt] | 2560 to 10000 | –
CCn1nc(S(=O)(=O)NC(=O)Nc2c(-c3cccc(OC)c3)ccc3c2CCC3)cc1CN(C)C [Example 182] | 640 to 2560 | –
CN(Cc1cc(S(=O)(=O)NC(=O)Nc2c3c(cc4c2CCC4)CCC3)nn1C)C1CC1 [Example 85, 5-((Cyclopropyl(methyl)amino)methyl)-N-((1,2,3,5,6,7-hexahydro-s-indacen-4-yl)carbamoyl)-1-methyl-1H-pyrazole-3-sulfonamide, Sodium Salt] | 160 to 640 | –
CC(C)n1nc(S(=O)(=O)[N-]C(=O)Nc2c3c(cc4c2CCC4)CCC3)cc1C(C)[N+](C)(C)C (stereo not shown) [Example 18, ((1,2,3,5,6,7-Hexahydro-s-indacen-4-yl)carbamoyl)((1-isopropyl-5-(1-(trimethylammonio)ethyl)-1H-pyrazol-3-yl)sulfonyl)amide] | 640 to 2560 | –
CC(C)c1cc(F)cc(C(C)C)c1NC(=O)NS(=O)(=O)c1cc(CN(C)C)n(C(C)C)n1 [Example 61, 5-((Dimethylamino)methyl)-N-((4-fluoro-2,6-diisopropylphenyl)carbamoyl)-1-isopropyl-1H-pyrazole-3-sulfonamide] | 160 to 640 | –
CNCCn1nc(S(=O)(=O)NC(=O)Nc2c3c(cc4c2CCC4)CCC3)cc1C(=O)O [Example 2, 3-(N-((1,2,3,5,6,7-Hexahydro-s-indacen-4-yl)carbamoyl)sulfamoyl)-1-(2-(methylamino)ethyl)-1H-pyrazole-5-carboxylic Acid] | 2560 to 10000 | –
CN(Cc1cc(S(=O)(=O)NC(=O)Nc2c3c(cc4c2CCC4)CCC3)nn1C)CC(F)(F)F [Example 97, N-((1,2,3,5,6,7-Hexahydro-s-indacen-4-yl)carbamoyl)-1-methyl-5-((methyl(2,2,2-trifluoroethyl)amino)methyl)-1H-pyrazole-3-sulfonamide, Sodium Salt] | 160 to 640 | –
CC(C)c1cc(Cl)cc(C(C)C)c1NC(=O)NS(=O)(=O)c1cc(C(=O)N(C)CC#N)n(C)n1 [Example 130, 3-(N-((4-Chloro-2,6-diisopropylphenyl)carbamoyl)sulfamoyl)-N-(cyanomethyl)-N,1-dimethyl-1H-pyrazole-5-carboxamide] | 640 to 2560 | –
CN(C)Cc1nc(S(=O)(=O)NC(=O)Nc2c3c(cc4c2CCC4)CCC3)cn1C [Example 167, 2-((Dimethylamino)methyl)-N-((1,2,3,5,6,7-hexahydro-s-indacen-4-yl)carbamoyl)-1-methyl-1H-imidazole-4-sulfonamide] | 2560 to 10000 | –
CCn1nc(S(=O)(=O)NC(=O)Nc2c(Br)ccc3c2CCC3)cc1CN(C)C [Example 16, N-((5-Bromo-2,3-dihydro-1H-inden-4-yl)carbamoyl)-5-((dimethylamino)methyl)-1-ethyl-1H-pyrazole-3-sulfonamide] | 640 to 2560 | –
